Legend:
[1] = target: Mitogen-activated protein kinase kinase kinase 8 (Homo sapiens, UniProt P41279); experiment: Selectivity interaction (Kinase panel (33PanQinase(R) Activity Assay)) EUB0000877a MAP3K8
[2] = target: Serine/threonine-protein kinase mTOR (Homo sapiens, UniProt P42345); experiment: Selectivity interaction (Kinase panel (Invitrogen)) EUB0000639a MTOR; details: at 200 nM
[3] = target: Macrophage-stimulating protein receptor (Homo sapiens, UniProt Q04912); experiment: Selectivity interaction (ProQinase) EUB0000171b MST1R
Macrophage-stimulating protein receptor, sequence (Q04912 25-304 limits assumed): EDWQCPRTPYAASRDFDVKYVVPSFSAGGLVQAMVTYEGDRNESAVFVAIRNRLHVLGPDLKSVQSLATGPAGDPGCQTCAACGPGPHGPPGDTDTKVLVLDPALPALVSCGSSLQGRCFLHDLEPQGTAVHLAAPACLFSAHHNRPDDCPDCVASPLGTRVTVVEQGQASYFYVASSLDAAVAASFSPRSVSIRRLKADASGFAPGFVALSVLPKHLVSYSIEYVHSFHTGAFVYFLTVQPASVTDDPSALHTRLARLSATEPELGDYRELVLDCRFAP
Macrophage-stimulating protein receptor, sequence (Q04912 310-1400 limits assumed): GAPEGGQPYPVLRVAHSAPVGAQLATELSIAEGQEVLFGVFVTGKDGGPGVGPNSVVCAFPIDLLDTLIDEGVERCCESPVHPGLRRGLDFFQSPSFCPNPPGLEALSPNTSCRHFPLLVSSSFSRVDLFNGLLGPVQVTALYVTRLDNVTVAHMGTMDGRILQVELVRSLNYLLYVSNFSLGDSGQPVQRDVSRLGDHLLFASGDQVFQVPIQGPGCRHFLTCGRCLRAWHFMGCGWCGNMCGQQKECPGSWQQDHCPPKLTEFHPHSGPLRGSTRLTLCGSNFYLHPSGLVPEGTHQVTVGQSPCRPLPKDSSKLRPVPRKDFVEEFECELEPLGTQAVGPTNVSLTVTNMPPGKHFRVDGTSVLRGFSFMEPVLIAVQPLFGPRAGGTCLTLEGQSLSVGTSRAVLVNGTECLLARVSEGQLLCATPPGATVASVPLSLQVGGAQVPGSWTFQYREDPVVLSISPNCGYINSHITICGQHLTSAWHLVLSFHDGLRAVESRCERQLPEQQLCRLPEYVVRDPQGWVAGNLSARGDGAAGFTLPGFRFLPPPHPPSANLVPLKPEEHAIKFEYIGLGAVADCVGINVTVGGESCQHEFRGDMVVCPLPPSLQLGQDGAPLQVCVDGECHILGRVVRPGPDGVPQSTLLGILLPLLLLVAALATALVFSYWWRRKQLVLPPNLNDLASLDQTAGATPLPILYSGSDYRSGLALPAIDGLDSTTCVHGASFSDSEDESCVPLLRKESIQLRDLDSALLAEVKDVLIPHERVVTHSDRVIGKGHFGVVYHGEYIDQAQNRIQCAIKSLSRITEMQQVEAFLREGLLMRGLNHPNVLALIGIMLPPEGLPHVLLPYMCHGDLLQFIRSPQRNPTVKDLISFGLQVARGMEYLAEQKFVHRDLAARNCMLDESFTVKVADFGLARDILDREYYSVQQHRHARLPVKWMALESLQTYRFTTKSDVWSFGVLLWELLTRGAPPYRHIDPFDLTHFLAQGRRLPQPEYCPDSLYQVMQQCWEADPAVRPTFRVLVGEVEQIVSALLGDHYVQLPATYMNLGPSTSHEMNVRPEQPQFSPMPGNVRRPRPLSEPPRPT

[4] = target: Protein kinase C gamma type (Homo sapiens) (UniProt P05129); experiment: Selectivity interaction (Kinase screening (Upstate/Millipore)) EUB0000604a PRKCG
[5] = Selectivity interaction (Ambit KINOMEscan and KiNATiv profiling in Jurkat cells) EUB0000090b CDK2H; details: Selectivity number of off-targets 9; Selectivity number of targets 456; Source Knowledge https://www.nature.com/articles/nchembio.2166; at 1 µM
[6] = target: T1, Serine/threonine-protein kinase MAK (Homo sapiens) (UniProt P20794); experiment: Selectivity interaction (Ambit KINOMEscan and KiNATiv profiling in Jurkat cells) EUB0000090b MAK; format: cell-based; details: at 1 µM
T1 sequence (whole entry): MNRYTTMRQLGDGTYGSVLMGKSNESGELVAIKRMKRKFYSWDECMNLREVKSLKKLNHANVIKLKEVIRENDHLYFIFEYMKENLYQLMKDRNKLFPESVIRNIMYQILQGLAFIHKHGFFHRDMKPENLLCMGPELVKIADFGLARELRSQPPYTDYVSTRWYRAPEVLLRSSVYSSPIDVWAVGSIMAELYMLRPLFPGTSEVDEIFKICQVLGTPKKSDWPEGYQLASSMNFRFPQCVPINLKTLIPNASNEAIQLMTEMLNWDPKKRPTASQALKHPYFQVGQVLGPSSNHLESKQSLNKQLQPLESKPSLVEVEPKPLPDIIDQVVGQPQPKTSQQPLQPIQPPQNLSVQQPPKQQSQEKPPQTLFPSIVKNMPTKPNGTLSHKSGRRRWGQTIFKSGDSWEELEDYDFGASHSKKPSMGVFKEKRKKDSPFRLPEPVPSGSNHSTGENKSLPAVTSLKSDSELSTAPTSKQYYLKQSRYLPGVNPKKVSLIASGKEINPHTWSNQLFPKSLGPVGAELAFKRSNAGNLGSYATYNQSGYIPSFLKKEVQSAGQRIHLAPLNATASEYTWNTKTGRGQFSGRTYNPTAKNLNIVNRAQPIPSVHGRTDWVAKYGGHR

[7] = target: T2, Ephrin type-B receptor 1 (Homo sapiens) (UniProt P54762); experiment: Selectivity interaction (Ambit KINOMEscan and KiNATiv profiling in Jurkat cells) EUB0000090b EPHB1; format: cell-based; details: at 1 µM
T2 sequence (whole entry): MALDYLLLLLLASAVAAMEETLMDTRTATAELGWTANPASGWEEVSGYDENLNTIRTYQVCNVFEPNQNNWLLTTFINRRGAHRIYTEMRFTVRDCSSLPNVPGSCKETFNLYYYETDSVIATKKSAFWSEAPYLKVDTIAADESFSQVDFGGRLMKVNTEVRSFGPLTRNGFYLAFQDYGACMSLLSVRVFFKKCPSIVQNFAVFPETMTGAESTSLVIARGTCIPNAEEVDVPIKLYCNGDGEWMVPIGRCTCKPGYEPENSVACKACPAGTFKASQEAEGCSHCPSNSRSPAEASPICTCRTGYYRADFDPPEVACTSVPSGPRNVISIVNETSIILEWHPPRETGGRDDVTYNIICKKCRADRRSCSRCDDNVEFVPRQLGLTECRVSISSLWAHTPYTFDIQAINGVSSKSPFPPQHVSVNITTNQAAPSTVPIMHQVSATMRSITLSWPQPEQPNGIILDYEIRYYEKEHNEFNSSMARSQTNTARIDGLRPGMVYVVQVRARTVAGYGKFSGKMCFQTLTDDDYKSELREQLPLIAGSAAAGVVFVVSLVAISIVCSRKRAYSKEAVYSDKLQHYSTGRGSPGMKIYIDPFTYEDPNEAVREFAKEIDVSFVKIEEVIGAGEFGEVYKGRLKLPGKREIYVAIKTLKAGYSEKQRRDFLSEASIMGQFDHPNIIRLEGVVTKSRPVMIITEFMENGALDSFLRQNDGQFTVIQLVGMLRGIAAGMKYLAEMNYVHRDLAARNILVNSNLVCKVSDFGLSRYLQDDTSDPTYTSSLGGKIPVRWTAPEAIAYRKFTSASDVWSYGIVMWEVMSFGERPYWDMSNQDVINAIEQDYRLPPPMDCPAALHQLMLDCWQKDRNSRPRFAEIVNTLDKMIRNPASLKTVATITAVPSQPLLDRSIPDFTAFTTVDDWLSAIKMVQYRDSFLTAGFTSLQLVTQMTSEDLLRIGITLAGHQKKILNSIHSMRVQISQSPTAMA

[8] = target: Serine/threonine-protein kinase B-raf (Homo sapiens) (UniProt P15056); experiment: (§1) Selectivity interaction (KinomeScan (DiscoverX)) EUB0000229b BRAF; details: at 10 µM
Serine/threonine-protein kinase B-raf (Homo sapiens), sequence (P15056 whole entry): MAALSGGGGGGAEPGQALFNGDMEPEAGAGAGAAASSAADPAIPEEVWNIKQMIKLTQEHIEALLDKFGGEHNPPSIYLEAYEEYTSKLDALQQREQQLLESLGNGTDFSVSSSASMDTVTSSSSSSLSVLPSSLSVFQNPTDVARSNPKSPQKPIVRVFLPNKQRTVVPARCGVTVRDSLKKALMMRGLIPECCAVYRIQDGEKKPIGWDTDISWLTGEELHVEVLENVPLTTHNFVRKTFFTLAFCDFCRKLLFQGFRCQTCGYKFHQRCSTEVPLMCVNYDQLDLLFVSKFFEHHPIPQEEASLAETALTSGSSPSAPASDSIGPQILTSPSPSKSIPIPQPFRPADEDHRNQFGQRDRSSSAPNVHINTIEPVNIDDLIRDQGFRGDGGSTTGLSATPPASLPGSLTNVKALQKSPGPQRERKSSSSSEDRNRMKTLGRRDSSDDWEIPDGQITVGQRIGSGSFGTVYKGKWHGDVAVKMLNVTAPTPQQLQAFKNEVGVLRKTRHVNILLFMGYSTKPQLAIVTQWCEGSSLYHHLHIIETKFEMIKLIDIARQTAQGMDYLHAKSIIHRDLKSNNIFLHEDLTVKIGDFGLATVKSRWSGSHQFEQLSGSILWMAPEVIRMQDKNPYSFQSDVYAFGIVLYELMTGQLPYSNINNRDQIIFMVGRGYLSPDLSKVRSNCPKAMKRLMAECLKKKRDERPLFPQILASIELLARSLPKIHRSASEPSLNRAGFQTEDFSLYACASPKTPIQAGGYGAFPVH

[9] = system: Serine/threonine-protein kinase B-raf (Homo sapiens), P15056 [V600E]; experiment: as §1; details: at 1 µM
Serine/threonine-protein kinase B-raf (Homo sapiens), P15056 [V600E], sequence (P15056 whole entry V600E): as the sequence (P15056 whole entry) above, with V600E counted along it

[10] = target: T3, Serine/threonine-protein kinase Nek5 (Homo sapiens) (UniProt Q6P3R8); experiment: Selectivity interaction (KinomeScan (DiscoverX)) EUB0000229b NEK5; details: at 10 µM
T3 sequence (whole entry): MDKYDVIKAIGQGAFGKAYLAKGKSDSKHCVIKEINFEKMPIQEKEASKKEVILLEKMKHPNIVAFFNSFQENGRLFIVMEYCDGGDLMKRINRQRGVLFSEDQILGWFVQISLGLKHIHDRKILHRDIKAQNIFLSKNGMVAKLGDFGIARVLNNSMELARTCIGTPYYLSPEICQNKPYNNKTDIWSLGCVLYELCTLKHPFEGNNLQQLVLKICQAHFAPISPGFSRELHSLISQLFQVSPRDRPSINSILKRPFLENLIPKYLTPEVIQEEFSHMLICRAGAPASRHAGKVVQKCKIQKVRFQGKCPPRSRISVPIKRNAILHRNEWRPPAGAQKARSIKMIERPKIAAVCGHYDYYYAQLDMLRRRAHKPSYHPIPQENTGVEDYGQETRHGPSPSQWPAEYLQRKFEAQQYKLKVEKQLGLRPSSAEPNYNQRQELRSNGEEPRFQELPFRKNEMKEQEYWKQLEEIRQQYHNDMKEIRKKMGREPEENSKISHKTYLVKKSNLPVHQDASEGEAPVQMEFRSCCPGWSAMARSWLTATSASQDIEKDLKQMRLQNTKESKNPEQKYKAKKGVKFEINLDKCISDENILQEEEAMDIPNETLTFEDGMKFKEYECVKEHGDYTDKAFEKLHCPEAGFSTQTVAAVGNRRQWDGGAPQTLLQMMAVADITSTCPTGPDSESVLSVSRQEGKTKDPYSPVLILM

[11] = target: Serine/threonine-protein kinase 26 (Homo sapiens, UniProt Q9P289); details: PBMC, at 1 µM
Serine/threonine-protein kinase 26, sequence (Q9P289 2-416 limits assumed): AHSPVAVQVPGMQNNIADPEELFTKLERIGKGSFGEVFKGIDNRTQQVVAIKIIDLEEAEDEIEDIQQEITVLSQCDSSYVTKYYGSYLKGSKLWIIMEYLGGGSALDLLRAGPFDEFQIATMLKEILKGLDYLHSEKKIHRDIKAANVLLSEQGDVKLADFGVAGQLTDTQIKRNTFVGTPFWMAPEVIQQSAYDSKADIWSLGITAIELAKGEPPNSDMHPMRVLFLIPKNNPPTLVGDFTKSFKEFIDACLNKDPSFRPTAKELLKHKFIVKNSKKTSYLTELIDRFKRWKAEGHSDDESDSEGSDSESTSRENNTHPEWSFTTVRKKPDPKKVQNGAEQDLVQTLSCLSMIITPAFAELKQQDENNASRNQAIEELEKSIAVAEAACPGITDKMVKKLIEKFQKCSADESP

Mitogen-activated protein kinase kinase kinase 8, sequence (P41279 whole entry): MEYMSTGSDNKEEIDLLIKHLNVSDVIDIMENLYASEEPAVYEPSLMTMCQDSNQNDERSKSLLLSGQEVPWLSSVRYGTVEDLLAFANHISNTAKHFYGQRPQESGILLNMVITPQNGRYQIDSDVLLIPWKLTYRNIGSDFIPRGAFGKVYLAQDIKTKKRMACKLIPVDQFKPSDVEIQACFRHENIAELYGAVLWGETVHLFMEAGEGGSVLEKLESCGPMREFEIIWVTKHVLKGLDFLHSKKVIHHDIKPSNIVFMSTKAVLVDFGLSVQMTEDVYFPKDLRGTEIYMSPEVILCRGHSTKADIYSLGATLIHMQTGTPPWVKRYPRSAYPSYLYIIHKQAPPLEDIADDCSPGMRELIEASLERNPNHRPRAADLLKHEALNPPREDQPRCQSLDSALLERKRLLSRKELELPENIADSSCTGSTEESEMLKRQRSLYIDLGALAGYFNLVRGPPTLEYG

CCC(=O)N1CC[C@H](Nc2ncnc3c2CN(c2cnc(OC)c(C(F)(F)F)c2)CC3)C1 [LENIOLISIB]
IC50 [1]: > 10 µM

CC[C@@H]1[C@H](F)C(=O)N[C@@H]1COc1nccc2cc(C(N)=O)c(OC)cc12 [ZIMLOVISERTIB]
% of inhibition [2]: 3.37%

C=CC(=O)Nc1cccc(C(=O)Nc2ccc(Nc3cc(-c4[nH]c(SC)nc4C)ccn3)cc2)c1
% of control ([3]; at 1 µM): 92% | % of control ([3]; at 5 µM): 104%

Cc1cnc(Nc2ccc(F)cc2Cl)nc1-c1c[nH]c(C(=O)N[C@H](CO)c2cccc(Cl)c2)c1
% of inhibition [4]: 11%

CN(C)C/C=C/C(=O)Nc1ccc(C(=O)N2CCCC(Nc3ncc(Cl)c(-c4c[nH]c5ccccc45)n3)C2)cc1 (configuration not stated)
% of control [5]: 100% | % of control [6]: 63% | % of control [7]: 95%

COc1cc(N(C)c2ccnc3ccc(C(F)(F)F)cc23)cc(OC)c1OC
% binding [8]: 71% | % binding [9]: 78% | % binding [10]: 93%

N#Cc1cccc(-c2c[nH]c3ncnc(N4CCOCC4)c23)c1
% of inhibition [11]: 39%
